# Several values for one entry are separate records, joined by “and”; a condition that tells them apart may be missing. Equal values may be shown once.
# Tests used:
# [1] = Stability in mouse serum (half-life); type: in vitro ADME; settings: 25% mouse serum, pre-incubated 15 min at 37°C, peptide 10^−4 M, RP-HPLC peak areas, mean of biological triplicates
# Protocol: (§1) (10−4 M final concentrations). At selected time intervals, 100 μl of reaction mixture was collected, quenched by 200 μl 95% EtOH, and adjusted at pH 2 to prevent peptide adsorption to serum proteins. […] Supernatants were analyzed by RP-HPLC on an Xbridge C18 column with a linear gradient of water, 0.08% TFA, and acetonitrile with 1% TFA. HPLC peak areas were used to calculate the percentages of intact compound remaining at the various time points. MIC and MBC values were determined in triplicate in many ESKAPE clinical isolates, including a dozen MDR S. aureus, by the broth microdilution method. Peptidomimetics and antibiotics were assayed in a concentration range of 1 to 128 μM. The bacterial inoculum (5 × 10^5 colony-forming units [CFUs]/well) was prepared in MHB or CAMHB (150 μl). A Biotek Synergy 2 spectrophotometer was used to record the results after 18–20 h incubation at 35°C (±2°C). […] After every hour of culture for 4 h, serial dilutions were plated on BHI plates and incubated overnight at 37°C, and then the CFUs were counted and expressed as log CFU/ml. Phosphate-buffered saline (PBS)-exposed S. aureus MRSA was included as a control.
# (§2) Supplementary file pbio.3000337.s013.docx: S7 Table Peptide half-lives in human and mouse sera. […] Peptide amounts and half-lives were determined by HPLC. Experiments were conducted on 25% human or mouse sera. Values are shown in minutes. The mean values correspond to biological triplicates. HPLC, high pressure liquid chromatography. (DOCX) Click here for additional data file.
# [2] = Stability in human serum (half-life); type: in vitro ADME; settings: 25% human serum, pre-incubated 15 min at 37°C, peptide 10^−4 M, RP-HPLC peak areas, mean of biological triplicates
# Protocol: as §1, §2
# Escherichia coli 13090 = system: Escherichia coli 13090
# Protocol: as §1
# A. baumanii 7985 = system: A. baumanii 7985
# Protocol: as §1
# Escherichia coli PV = settings: E. coli PV
# Protocol: as §1
# Escherichia coli 750 = system: Escherichia coli 750
# Protocol: as §1
# Escherichia coli 758 = system: Escherichia coli 758
# Protocol: as §1
# Escherichia coli 293 = system: Escherichia coli 293
# Protocol: as §1
# Escherichia coli 146 = system: Escherichia coli 146
# Protocol: as §1
# A. baumanii 11896 = system: A. baumanii 11896
# Protocol: as §1
# Escherichia coli K12 = settings: E. coli K12
# Protocol: as §1
# P. aeruginosa 15637 = system: P. aeruginosa 15637
# Protocol: as §1
# Escherichia coli 508 = system: Escherichia coli 508
# Protocol: as §1
# P. aeruginosa 15644 = system: P. aeruginosa 15644
# Protocol: as §1
# Escherichia coli 444 = system: Escherichia coli 444
# Protocol: as §1
# P. aeruginosa 15638 = system: P. aeruginosa 15638
# Protocol: as §1
# P. aeruginosa PA14 = settings: P. aeruginosa PA14
# Protocol: as §1
# K. pneumoniae 13825 = system: K. pneumoniae 13825
# Protocol: as §1
# P. aeruginosa 15641 = system: P. aeruginosa 15641
# Protocol: as §1
# P. aeruginosa 15643 = system: P. aeruginosa 15643
# Protocol: as §1
# Escherichia coli 066 = system: Escherichia coli 066
# Protocol: as §1
# Escherichia coli ML35P = settings: E. coli ML35P
# Protocol: as §1
# K. pneumoniae 13829 = system: K. pneumoniae 13829
# Protocol: as §1
# Escherichia coli MCR−1 = system: Escherichia coli MCR−1
# Protocol: as §1
# [3] = system: Enterobacter cloacae ATCC13047; settings: Enterobacter cloacae ATCC13047
# Protocol: as §1
# Escherichia coli 283 = system: Escherichia coli 283
# Protocol: as §1
# S. aureus MRSA = experiment: Cutaneous abscess mouse model (lesion size, CFU); type: in vivo, mice; settings: cutaneous abscesses from MRSA in mice; IV 24 h post-infection, 1.5 mg.kg-1; individual values
# Protocol: (§3) For the cutaneous abscess model, the mice were randomly divided into 5 sets. The mice were anesthetized with isoflurane, their dorsal fur shaved, and their skin disinfected with 70% ethanol. An overnight culture of S. aureus MRSA or P. aeruginosa LESB58 was washed with 0.9% NaCl, and then a subcutaneous injection of 2 × 10^9 CFUs and an equal amount of sterile Cytodex microcarrier beads (20 mg.ml^−1, Sigma) for S. aureus MRSA, or 10^8 CFUs for P. aeruginosa were injected into the shaved area. […] Mice were monitored every day and then euthanized with CO2 on Day 6 or on Day 3. Abscesses were excised, measured, and homogenized in PBS using an Ultra-Turax. Serial dilutions of the samples were plated on BHI (MRSA) or 2YT medium (LESB58) plates and then incubated overnight at 37°C. Afterward, the CFUs were counted and expressed as log CFU/ml. Dermonecrosis areas were calculated according to the formula π × L × W. ATP levels were determined with an ATP assay kit (Promega) according to manufacturer instructions on sets of 5 colonies harboring the SCV phenotype, and sets of 5 colonies harboring a normal phenotype, after growth on BHI plates.
# S. aureus = experiment: Intracellular ATP levels of SCV versus normal colonies from skin abscesses; type: cell-based; settings: individual values
# Protocol: as §3
# [4] = broth microdilution, 3 independent experiments
molecule,measurement,setting,value
polymyxin B [reference compound],Half-life in mouse serum,[1],10.7 ± 2.7 h
same,Half-life in human serum,[2],23 ± 3.33 h
same,MBC/MIC,Escherichia coli 13090; E. coli 13090,1
same,MIC,"Escherichia coli 13090; E. coli 13090, clinical strain, Caen hemoculture, broth microdilution, 3 independent experiments",0.5 (0.65) μM
same,MBC/MIC,A. baumanii 7985; A. baumanii 7985,1
same,MIC,"A. baumanii 7985; A. baumanii 7985, clinical strain, Caen hemoculture, broth microdilution, 3 independent experiments",1 (1.3) μM
same,MBC/MIC,Escherichia coli PV,1
same,MIC,"Escherichia coli PV; clinical strain, Rennes vascular prosthetics, broth microdilution, 3 independent experiments",0.5 (0.65) μM
same,MBC/MIC,Escherichia coli 750; E. coli 750,1
same,MIC,"Escherichia coli 750; E. coli 750, clinical strain, Rennes urinary catheter, broth microdilution, 3 independent experiments",1 (1.3) μM
same,MBC/MIC,Escherichia coli 758; E. coli 758,1
same,MIC,"Escherichia coli 758; E. coli 758, clinical strain, Rennes urinary catheter, broth microdilution, 3 independent experiments",0.5 (0.65) μM
same,MBC/MIC,Escherichia coli 293; E. coli 293,1
same,MIC,"Escherichia coli 293; E. coli 293, clinical strain, Rennes urinary catheter, broth microdilution, 3 independent experiments",0.5 (0.65) μM
same,MBC/MIC,Escherichia coli 146; E. coli 146,1
same,MIC,"Escherichia coli 146; E. coli 146, clinical strain, Rennes urinary catheter, broth microdilution, 3 independent experiments",1 (1.3) μM
same,MBC/MIC,A. baumanii 11896; A. baumanii 11896,2
same,MIC,"A. baumanii 11896; A. baumanii 11896, clinical strain, Caen hemoculture, broth microdilution, 3 independent experiments",1 (1.3) μM
same,MBC/MIC,Escherichia coli K12,1
same,MIC,Escherichia coli K12; [4],0.5 (0.65) μM
same,MBC/MIC,P. aeruginosa 15637; P. aeruginosa 15637,2
same,MIC,"P. aeruginosa 15637; P. aeruginosa 15637, clinical strain, Caen hemoculture, broth microdilution, 3 independent experiments",1 (1.3) μM
same,MBC/MIC,Escherichia coli 508; E. coli 508,1
same,MIC,"Escherichia coli 508; E. coli 508, clinical strain, Rennes urinary catheter, broth microdilution, 3 independent experiments",0.5 (0.65) μM
same,MBC/MIC,P. aeruginosa 15644; P. aeruginosa 15644,2
same,MIC,"P. aeruginosa 15644; P. aeruginosa 15644, clinical strain, Caen hemoculture, broth microdilution, 3 independent experiments",1 (1.3) μM
same,MBC/MIC,Escherichia coli 444; E. coli 444,1
same,MIC,"Escherichia coli 444; E. coli 444, clinical strain, Rennes urinary catheter, broth microdilution, 3 independent experiments",0.5 (0.65) μM
same,MBC/MIC,P. aeruginosa 15638; P. aeruginosa 15638,2
same,MIC,"P. aeruginosa 15638; P. aeruginosa 15638, clinical strain, Caen hemoculture, broth microdilution, 3 independent experiments",1 (1.3) μM
same,MBC/MIC,P. aeruginosa PA14,2
same,MIC,P. aeruginosa PA14; [4],0.5 (0.65) μM
same,MBC/MIC,K. pneumoniae 13825; K. pneumoniae 13825,2
same,MIC,"K. pneumoniae 13825; K. pneumoniae 13825, clinical strain, Caen hemoculture, broth microdilution, 3 independent experiments",2 (2.6) μM
same,MBC/MIC,P. aeruginosa 15641; P. aeruginosa 15641,2
same,MIC,"P. aeruginosa 15641; P. aeruginosa 15641, clinical strain, Caen hemoculture, broth microdilution, 3 independent experiments",1 (1.3) μM
same,MBC/MIC,P. aeruginosa 15643; P. aeruginosa 15643,2
same,MIC,"P. aeruginosa 15643; P. aeruginosa 15643, clinical strain, Caen hemoculture, broth microdilution, 3 independent experiments",0.5 (0.65) μM
same,MBC/MIC,Escherichia coli 066; E. coli 066,1
same,MIC,"Escherichia coli 066; E. coli 066, clinical strain, Rennes urinary catheter, broth microdilution, 3 independent experiments",1 (1.3) μM
same,MBC/MIC,Escherichia coli ML35P,1
same,MBC/MIC,K. pneumoniae 13829; K. pneumoniae 13829,2
same,MIC,"K. pneumoniae 13829; K. pneumoniae 13829, clinical strain, Caen hemoculture, broth microdilution, 3 independent experiments",8 (10.4) μM
same,MBC/MIC,Escherichia coli MCR−1; E. coli MCR−1,1
same,MIC,"Escherichia coli MCR−1; E. coli MCR−1, clinical strain, Caen hemoculture, broth microdilution, 3 independent experiments",2 (2.6) μM
same,MBC/MIC,[3],2
same,MIC,[3]; [4],8 (10.4) μM
same,MBC/MIC,Escherichia coli 283; E. coli 283,1
same,MIC,"Escherichia coli 283; E. coli 283, clinical strain, Rennes urinary catheter, broth microdilution, 3 independent experiments",0.5 (0.65) μM
CN[C@H](CC(C)C)C(=O)N[C@H]1C(=O)N[C@@H](CC(N)=O)C(=O)N[C@H]2C(=O)N[C@H]3C(=O)N[C@H](C(=O)N[C@H](C(=O)O)c4cc(O)cc(O)c4-c4cc3ccc4O)[C@H](O)c3ccc(c(Cl)c3)Oc3cc2cc(c3O[C@@H]2O[C@H](CO)[C@@H](O)[C@H](O)[C@H]2O[C@H]2C[C@](C)(N)[C@H](O)[C@H](C)O2)Oc2ccc(cc2Cl)[C@H]1O [Vanco],Area of dermonecrosis,S. aureus MRSA,88.6 mm2 and 44.4 mm2 and 88.5 mm2 and 82.8 mm2 and 67.1 mm2 and 13 mm2 and 197.8 mm2 and 164.7 mm2 and 166.7 mm2 and 90 mm2
same,"Intracellular ATP level, 'normal growing'",S. aureus; 'normal growing' colonies from MRSA abscesses of mice treated IV with 1.5 mg.kg-1,122379 AU and 119801 AU and 111813 AU and 113023 AU and 103234 AU
same,"Intracellular ATP level, SCV",S. aureus; SCV from MRSA abscesses of mice treated IV with 1.5 mg.kg-1,20326.9 AU and 5706.67 AU and 6923.08 AU and 10333.3 AU and 15090.9 AU
